Patent US6875578B2, “System for cell-based screening” (priority 1997, dated 2005)
“Also recorded” adds a separate entry of the source.

Tests used:
Assay type in all cases: cell-based
Details in all cases: 30 hours
MCF-7 cells [1] = experiment: Apoptosis mitochondrial mass/potential, MCF-7 cells
Description: Cells were plated into 96-well plates at densities of 3×10^3 to 1×10^4 cells/well. The following day apoptotic inducers were added at the indicated concentrations and cells were incubated for the indicated time periods (usually 16-30 hours). Cells were stained with 5 μg/ml Hoechst (Molecular Probes, Inc.) and 750 nM MITOTRACKER™ Red (CMXRos, Molecular Probes, Inc.) in fresh medium and incubated for 30 minutes at 37° C. Cells were washed in HBSS and fixed with 3.7% formaldehyde in HBSS at room temperature. Plates were washed with HBSS and permeabilized with 0.5% v/v TRITON™ X-100 in HBSS at room temperature. Cells were washed 2× with HBSS at room temperature and the plate was sealed. For dual labeling of mitochondria, cells were treated with 200 nM MITOTRACKER™ Green and 200 nM MITOTRACKER™ Red for 0.5 hours before fixation.
The mitochondrial membrane potential is measured by labeling mitochondria with both MITOTRACKER™ Green FM and MITOTRACKER™ Red (Molecular Probes, mc). MITOTRACKER™ Red labeling is proportional to both mass and membrane potential. MITOTRACKER™ Green FM labeling is proportional to mass. The ratio of MITOTRACKER™ Red signal to the MITOTRACKER™ Green FM signal provides a measure of mitochondrial membrane potential (Poot and Pierce, 1999). This ratio normalizes the […]. […]

MCF-7 cells [2] = experiment: Apoptosis actin reorganization (f-actin content), MCF-7 cells
Description: Cells were plated in 96-well plates at densities of 3×10^3 to 1×10^4 cells/well. The following day apoptotic inducers were added at indicated concentrations. Cells were incubated for the indicated time periods (usually 16-30 hours). The next day the medium was removed and cells were stained with 5 μg/ml Hoechst (Molecular Probes, Inc.) in fresh medium and incubated for 30 minutes at […]. Cells were washed in HBSS and fixed with 3.7% formaldehyde in HBSS at room temperature. Plates were washed with HBSS and permeabilized with 0.5% v/v Triton X-100 in HBSS at room temperature. Plates were washed in HBSS and stained with 100 μl of 1 U/ml of Alexa 488 Phalloidin stock (100 μl/well, Molecular Probes, Inc.). Cells were washed 2×with HBSS at RT and the plate was sealed.
Quantitation of f-actin content was accomplished by measuring the intensity of phalloidin staining around the nucleus. This was determined to be a reasonable approximation of a full cytoplasmic average of the intensity. The mask used to approximate this cytoplasmic measure was derived from the nuclear mask defined by the Hoechst stain. Derivation was accomplished by combinations of erosions and dilations.

MCF-7 cells [3] = experiment: Apoptosis nuclear morphology, MCF-7 cells
Description: Cells were plated into 96-well plates at densities of 3×10^3 to 1×10^4 cells/well. The following day apoptotic inducers were added at indicated concentrations and cells were incubated for indicated time periods (usually 16-30 hours). The next day medium was removed and cells were stained with 5 μg/ml Hoechst (Molecular Probes, Inc.) in fresh medium and incubated for 30 minutes at 37° C. Cells were washed in Hank's Balanced Salt Solution (HBSS) and fixed with 3.7% formaldehyde in HBSS at room temperature. Cells were washed 2×with HBSS at room temperature and the plate was sealed.
Quantitation of changes in nuclear morphology upon induction of apoptosis was accomplished by (1) measuring the effective size of the nuclear region; and (2) measuring the degree of convolution of the perimeter.

SMILES: CC(=O)O[C@H]1C(=O)[C@@]2(C)[C@H]([C@H](OC(=O)c3ccccc3)[C@]3(O)C[C@H](OC(=O)[C@H](O)[C@@H](NC(=O)c4ccccc4)c4ccccc4)C(C)=C1C3(C)C)[C@]1(OC(C)=O)CO[C@@H]1C[C@@H]2O [paclitaxel]
- mitochondrial changes (mass / membrane potential) (MCF-7 cells [1]): consistent increases in mitochondrial mass; also recorded: an increase in mitochondrial mass
- change in peri-nuclear f-actin content (MCF-7 cells [2]): highly variable; also recorded: highly variable and not significant
- change in nuclear morphology (MCF-7 cells [3]): nuclear fragmentation
